Source: patent publication US20240391948A1, “NOVEL COMPOUND THAT INHIBITS TNF-ALPHA GENERATION AND INFLAMMASOME ACTIVITY AND PREPARATION METHOD THEREFOR” (SHAPERON INC., priority 2021, published 2024)
pIC50: −log10 of the molar value.

Experiments:
Format in all cases: cell-based
[1] = test system: J774A.1 (Mouse BALB/c monocyte macrophage cell line) cells; experiment: LPS-induced TNF-α secretion inhibition in J774A.1 cells; settings: J774.A1, 1 μM compound, graded compared to taurodeoxycholic acid (positive control), read-out: TNF-α production inhibition grade
Protocol: (§1) To evaluate anti-inflammatory efficacy, an inflammatory response was induced in J774A.1 (Mouse BALB/c monocyte macrophage cell line) cells derived from mouse macrophages by LPS (lipopolysaccharide) and LPS+ATP (adenosine triphosphate), and the efficacy of taurine-bile acid derivatives to inhibit the production of inflammatory cytokines (IL-1β, TNF-α) was measured. After treating J774A.1 cells with 1 μM of a taurine-bile acid derivative, the degree to which the secretion of TNF-α among cytokines was suppressed was measured in the experimental group in which an inflammatory response was induced by LPS, and the extent to which IL-1β secretion among cytokines was suppressed was measured in the experimental group in which an inflammatory response was induced with LPS+ATP. The ability of taurine-bile acid derivatives to inhibit cytokine production was graded compared to taurodeoxycholic acid, a positive control. The grading criteria are A: over 100%, B: over 50% and under 100%, C: between 20% and under 50%, and D: under 20%.

[2] = test system: U937 cells (human monocytic cell line); experiment: BzATP-induced IL-1β secretion inhibition in PMA-differentiated U937 cells; settings: U-937, U937 cells differentiated with PMA, read-out: IL-1β production inhibition grade (IC50)
Protocol: (§2) To evaluate anti-inflammatory efficacy, U937 cells (human monocytic cell line) were differentiated into macrophages using PMA (phorbol 12-myristate 13-acetate) and then induced an inflammatory response with Pam2CSK4 (Pam2CysSerLys4) or BzATP (2′(3′)—O-(4-Benzoylbenzoyl)adenosine 5′-triphosphate), the efficacy of taurine-bile acid derivatives in suppressing inflammatory cytokine (IL-1β, TNF-α) production was measured.
(§3) Using PMA, U937 cells were differentiated into macrophages, and the extent of TNF-α secretion inhibition was measured in an experimental group where taurine-bile acid derivatives was treated, followed by induction of inflammatory response with Pam2CSK4, and in the experimental group in which an inflammatory response was induced with BzATP, the extent to which IL-1β secretion among cytokines was suppressed was measured.
(§4) The ability of taurine-bile acid derivatives to inhibit cytokine production was expressed in terms of IC50 (μM) values. The standards for TNF α inhibition ability are A: less than 0.5, B: 0.5 to less than 1.0, C: 1.0 to less than 2.0, D: 2.0 or more, and the IL-1β inhibition ability grade standards are A: less than 0.05, B: 0.05 to less than 0.10, C: 0.10 or more and less than 0.20, D: 0.20 or more.

[3] = test system: U937 cells (human monocytic cell line); experiment: Pam2CSK4-induced TNF-α secretion inhibition in PMA-differentiated U937 cells; settings: U-937, U937 cells differentiated with PMA, read-out: TNF-α production inhibition grade (IC50)
Protocol: as §2, §3, §4

[4] = test system: J774A.1 (Mouse BALB/c monocyte macrophage cell line) cells; experiment: LPS+ATP-induced IL-1β secretion inhibition in J774A.1 cells; settings: J774.A1, 1 μM compound, graded compared to taurodeoxycholic acid (positive control), read-out: IL-1β production inhibition grade
Protocol: as §1

| Structure (SMILES) | inhibition at 1 µM [1] | pIC50 [2] | pIC50 [3] | inhibition at 1 µM [4] |
| --- | --- | --- | --- | --- |
| C[C@H](CCC(=O)NCCOS(=O)(=O)O)[C@H]1CC[C@H]2[C@@H]3CC[C@@H]4C[C@H](O)CC[C@]4(C)[C@H]3C[C@H](O)[C@]12C [NC10007] | 50 to 100% | > 7.30 | ≤ 5.70 | 50 to 100% |
| C[C@H](CCC(=O)N1CCC(CCS(=O)(=O)O)CC1)[C@H]1CC[C@H]2[C@@H]3CC[C@@H]4C[C@H](O)CC[C@]4(C)[C@H]3C[C@H](O)[C@]12C [NC10008] | > 100% | > 7.30 | > 6.30 | > 100% |
| C[C@H](CCC(=O)N1CCN(S(=O)(=O)O)CC1)[C@H]1CC[C@H]2[C@@H]3CC[C@@H]4C[C@H](O)CC[C@]4(C)[C@H]3C[C@H](O)[C@]12C [NC10009] | > 100% | > 7.30 | > 6.30 | > 100% |
| C[C@H](CCC(=O)N1CCN(CCS(=O)(=O)O)CC1)[C@H]1CC[C@H]2[C@@H]3CC[C@@H]4C[C@H](O)CC[C@]4(C)[C@H]3C[C@H](O)[C@]12C [NC10010] | > 100% | > 7.30 | > 6.30 | > 100% |
| C[C@H](CCC(=O)N1CCC(S(=O)(=O)O)CC1)[C@H]1CC[C@H]2[C@@H]3CC[C@@H]4C[C@H](O)CC[C@]4(C)[C@H]3C[C@H](O)[C@]12C [NC10011] | > 100% | > 7.30 | > 6.30 | > 100% |
| C[C@H](CCC(=O)N1CCC(CCS(=O)(=O)O)CC1)[C@H]1CC[C@H]2[C@@H]3CC[C@@H]4C[C@H](O)CC[C@]4(C)[C@H]3CC[C@]12C [NC10012] | > 100% | > 7.30 | > 6.30 | > 100% |
| C[C@H](CCC(=O)NCCOS(=O)(=O)O)[C@H]1CC[C@H]2[C@@H]3CC[C@@H]4C[C@H](O)CC[C@]4(C)[C@H]3CC[C@]12C [NC10013] | < 20% | 7.00 to 7.30 | 6.00 to 6.30 | 50 to 100% |
| C[C@H](CCC(=O)NCCCS(=O)(=O)O)[C@H]1CC[C@H]2[C@@H]3CC[C@@H]4C[C@H](O)CC[C@]4(C)[C@H]3CC[C@]12C [NC10014] | < 20% | > 7.30 | 5.70 to 6.00 | < 20% |
| C[C@H](CCC(=O)Nc1ccc(S(=O)(=O)O)cc1)[C@H]1CC[C@H]2[C@@H]3CC[C@@H]4C[C@H](O)CC[C@]4(C)[C@H]3CC[C@]12C [NC10015] | < 20% | > 7.30 | ≤ 5.70 | < 20% |
| C[C@H](CCC(=O)N(CCS(=O)(=O)O)C1CCCCC1)[C@H]1CC[C@H]2[C@@H]3CC[C@@H]4C[C@H](O)CC[C@]4(C)[C@H]3CC[C@]12C [NC10016] | > 100% | > 7.30 | > 6.30 | > 100% |
| CCN(CC)CCNC(=O)CC[C@@H](C)[C@H]1CC[C@H]2[C@@H]3CC[C@@H]4C[C@H](O)CC[C@]4(C)[C@H]3C[C@H](O)[C@]12C [NC10017] | > 100% | > 7.30 | 6.00 to 6.30 | > 100% |
| C[C@H](CCC(=O)NCCN1CCOCC1)[C@H]1CC[C@H]2[C@@H]3CC[C@@H]4C[C@H](O)CC[C@]4(C)[C@H]3C[C@H](O)[C@]12C [NC10018] | 50 to 100% | 7.00 to 7.30 | ≤ 5.70 | 20 to 50% |
| C[C@H](CCC(=O)N1CCN(C)CC1)[C@H]1CC[C@H]2[C@@H]3CC[C@@H]4C[C@H](O)CC[C@]4(C)[C@H]3C[C@H](O)[C@]12C [NC10019] | < 20% | ≤ 6.70 | 6.00 to 6.30 | 20 to 50% |
| C[C@H](CCC(=O)N(CCS(=O)(=O)O)Cc1ccccc1)[C@H]1CC[C@H]2[C@@H]3CC[C@@H]4C[C@H](O)CC[C@]4(C)[C@H]3C[C@H](O)[C@]12C [NC10022] | 20 to 50% | 6.70 to 7.00 | 6.00 to 6.30 | 50 to 100% |
| CC(C)N(CCS(=O)(=O)O)C(=O)CC[C@@H](C)[C@H]1CC[C@H]2[C@@H]3CC[C@@H]4C[C@H](O)CC[C@]4(C)[C@H]3C[C@H](O)[C@]12C [NC10024] | < 20% | 7.00 to 7.30 | 5.70 to 6.00 | > 100% |
| C[C@H](CCC(=O)N1CCC[C@H](S(=O)(=O)O)C1)[C@H]1CC[C@H]2[C@@H]3CC[C@@H]4C[C@H](O)CC[C@]4(C)[C@H]3C[C@H](O)[C@]12C [NC10026] | < 20% | > 7.30 | 5.70 to 6.00 | > 100% |
| C[C@H](CCC(=O)N1CCC[C@@H](S(=O)(=O)O)C1)[C@H]1CC[C@H]2[C@@H]3CC[C@@H]4C[C@H](O)CC[C@]4(C)[C@H]3C[C@H](O)[C@]12C [NC10027] | < 20% | > 7.30 | 6.00 to 6.30 | > 100% |
| C[C@H](CCC(=O)N1CC(S(=O)(=O)O)C1)[C@H]1CC[C@H]2[C@@H]3CC[C@@H]4C[C@H](O)CC[C@]4(C)[C@H]3C[C@H](O)[C@]12C [NC10028] | < 20% | 7.00 to 7.30 | ≤ 5.70 | > 100% |
| C[C@H](CCC(=O)NC(C)(C)CS(=O)(=O)O)[C@H]1CC[C@H]2[C@@H]3CC[C@@H]4C[C@H](O)CC[C@]4(C)[C@H]3C[C@H](O)[C@]12C [NC10029] | < 20% | 7.00 to 7.30 | ≤ 5.70 | > 100% |
| C[C@H](CCC(=O)N[C@H](Cc1ccccc1)CS(=O)(=O)O)[C@H]1CC[C@H]2[C@@H]3CC[C@@H]4C[C@H](O)CC[C@]4(C)[C@H]3C[C@H](O)[C@]12C [NC10031] | < 20% | 7.00 to 7.30 | ≤ 5.70 | < 20% |
| CC(C)[C@@H](CS(=O)(=O)O)NC(=O)CC[C@@H](C)[C@H]1CC[C@H]2[C@@H]3CC[C@@H]4C[C@H](O)CC[C@]4(C)[C@H]3C[C@H](O)[C@]12C [NC10032] | < 20% | 7.00 to 7.30 | ≤ 5.70 | 50 to 100% |
| CC(C)[C@H](CS(=O)(=O)O)NC(=O)CC[C@@H](C)[C@H]1CC[C@H]2[C@@H]3CC[C@@H]4C[C@H](O)CC[C@]4(C)[C@H]3C[C@H](O)[C@]12C [NC10033] | < 20% | 6.70 to 7.00 | 6.00 to 6.30 | 50 to 100% |
| C[C@H](CCC(=O)N[C@@H](CS(=O)(=O)O)c1ccccc1)[C@H]1CC[C@H]2[C@@H]3CC[C@@H]4C[C@H](O)CC[C@]4(C)[C@H]3C[C@H](O)[C@]12C [NC10035] | < 20% | ≤ 6.70 | 6.00 to 6.30 | 50 to 100% |
| C[C@H](CCC(=O)N1CCC[C@@H]1CS(=O)(=O)O)[C@H]1CC[C@H]2[C@@H]3CC[C@@H]4C[C@H](O)CC[C@]4(C)[C@H]3C[C@H](O)[C@]12C [NC10036] | < 20% | 6.70 to 7.00 | ≤ 5.70 | > 100% |
| C[C@H](CCC(=O)N1CCC[C@H]1CS(=O)(=O)O)[C@H]1CC[C@H]2[C@@H]3CC[C@@H]4C[C@H](O)CC[C@]4(C)[C@H]3C[C@H](O)[C@]12C [NC10037] | < 20% | ≤ 6.70 | > 6.30 | 50 to 100% |
| C[C@H](CCC(=O)NC[C@H](C)S(=O)(=O)O)[C@H]1CC[C@H]2[C@@H]3CC[C@@H]4C[C@H](O)CC[C@]4(C)[C@H]3C[C@H](O)[C@]12C [NC10038] | < 20% | 7.00 to 7.30 | ≤ 5.70 | 50 to 100% |
